Molecules are shown by their SMILES. ≈ marks a conversion by molar mass, not a printed value. Like-named read-outs stand apart in the source and are kept apart here.

The values that follow come from patent publication US7884120B2, “2,4,5-trisubstituted imidazoles and their use as anti-microbial agents” (Lorus Therapeutics Inc., priority 2002, dated 2011).

Data set [1] concerns Methicillin-Resistant Staphylococcus aureus (MRSA), CMRSA-1B. Nature of the data set: MIC by sequential macrodilution (tube) broth method against MRSA. Format: cell-based. More on the design: key: (+): Positive visual bacterial growth; (−): Negative visual bacterial growth. As to conditions: 37° C. overnight. As for the experimental part:
(Nat. Committee for Clinical Laboratory Standards. Document M7-A5 2000, 20; 1-25). Bacterial suspensions containing 5×10^5 colony-forming units (CFU) were incubated with serial two-fold dilutions of each drug at 37° C. overnight, and growth was monitored visually. The range of MIC values among the triaryl-imidazole derivatives was 12.5-50 μg/ml.

The test system of data set [2] is multi-drug resistant Staphylococcus aureus (CMRSA-1B). Nature of the data set: Bactericidal effect against MRSA (CFU plating on TSA). As to conditions: overnight with compound, plated on TSA, CFU count (FIG. 1). The class given is cell-based. As for the experimental part: Serial dilutions of liquid cultures were incubated with the compounds at 37° C. overnight and then plated on Tryptic Soy Agar (TSA) plates. After incubation for 17 hours at 37° C., the number of live bacteria was calculated from the number of colonies grown per milliliter of culture and expressed as colony-forming units (CFU).

For the next data set, the system named is MRSA-1B387. In words: In vivo inhibition of MRSA, acute infection in immunosuppressed CB17-SCID mice. Particulars: 5×10^6 MRSA-1B387 in 5% mucin, 50 mg/kg I.P. immediately and 3 hours after inoculation. Further details: species or system Staphylococcus aureus. As for the experimental part: Triaryl-imidazole compounds were tested in vivo for antibacterial activity against MRSA in a model of acute infection using immunosuppressed mice. Suspensions of 400 μL containing 5×10^6 MRSA-1B387 bacteria in 5% mucin were injected into groups of 5-10 female, 8-14 weeks CB17-SCID mice. Under these conditions bacterial infection produced 80-100% lethality in less than 48 hours. Each group of inoculated mice was treated with 50 mg/kg of the respective compound intraperitoneally (I.P.) immediately and 3 hours after bacterial inoculation.

The format of data set [3] is in vivo. Particulars: mice; injected 200 mg/kg per day. As for the experimental part: In vivo acute toxicity tests were conducted using compounds 1, 2, 3 and 4. Mice were injected with each of the above compounds at a concentration of 200 mg/kg per day.
For data set [4], the system named is S. aureus, MRSA 1A-218, 1A-318, 1B-374, 1B-315, 1B-185, 1B387 and MSSA ATCC-6538, ATCC-29213. Nature of the data set: MIC by standard microdilution method against S. aureus (MRSA and MSSA strains). The class given is cell-based. As to conditions: Staphylococcus aureus. As for the experimental part:
(§1) A standard microdilution method (NCCLS, 2000; Document M7-A5) was used to determine the minimum inhibitory concentrations (MICs) against S. aureus, methicillin-resistant strains (MRSA); 1A-218, 1A-318, 1B-374, 1B-315, 1B-185, 1B387 (Simor et al. 1999 Can Commun Dis Rep; 25:105-108) and methicillin-sensitive strains (MSSA); ATCC-6538 and ATCC-29213. The MICs of some compounds were also determined against other Gram-positive bacteria: Enterococcus faecium (ATCC 51559), Enterococcus faecalis (ATCC-51299, ATCC-29212) and Staphylococcus epidermidis (ATCC-35983).
(§2) Mueller-Hinton broth (MHB) is recommended as the medium of choice for susceptibility testing of commonly isolated, rapidly growing aerobic organisms such as the Gram-positive bacteria included in this study. A “cation-adjusted Mueller-Hinton broth” (Ca-MHB) was prepared by first preparing standard MHB from a dehydrated base as recommended by the manufacturer.
(§3) Single colonies from fresh agar plates of the different bacterial cultures were sub-cultured overnight in 3 ml of Tryptic soy broth (TSB) at 37° C. with shaking at 250 RPM. After 18-20 hours of incubation, the absorbance at λ=600 nm (OD600) were determined for each culture and adjusted to a final OD600=0.1 (4.2×10^7 cfu/ml). Bacterial suspensions were then diluted 1:200 in sterile Ca-MHB for the in vitro susceptibility test, with each well of the microtitre plate containing approximately 2×10^5 cfu/ml.
(§4) Stock solutions of the different test compounds were prepared at concentrations of 1,280 μg/ml, 640 μg/ml, or 320 μg/ml in 50% DMSO (dimethyl sulfoxide). Serial two-fold dilutions were then prepared in 50% DMSO (the working concentrations were 1:10 of the stock concentrations in 100 μl culture suspensions). The filled microtitre plates were sealed in plastic bags and incubated at 35° C. for 24 hr in an ambient air incubator with shaking at 250 RPM. MIC values were determined as the lowest concentration where complete inhibition of the visible bacterial growth was observed by the unaided eye and confirmed by the measurement of the optical density (OD600).
A general note: Broth dilution looks for growth in wells or tubes with falling amounts of substance.

For data set [5], the system named is Enterococcus faecium (ATCC-51559). Nature of the data set: MIC by microdilution against Enterococcus faecium. Format: cell-based. Particulars: unit not given in Table 4 (Table 3, same method: μg/ml). As for the experimental part:
as §1, §2, §3, §4

Data set [6] deals with Enterococcus faecalis (ATCC-51299). In words: MIC by microdilution against Enterococcus faecalis ATCC-51299. The class given is cell-based. As to conditions: unit not given in Table 4 (Table 3, same method: μg/ml). As for the experimental part:
as §1, §2, §3, §4

In data set [7] the test system is Enterococcus faecalis (ATCC-29212). In words: MIC by microdilution against Enterococcus faecalis ATCC-29212. Format: cell-based. As to conditions: unit not given in Table 4 (Table 3, same method: μg/ml). As for the experimental part:
as §1, §2, §3, §4

Data set [8] relates to Staphylococcus epidermidis (ATCC-35983). Nature of the data set: MIC by microdilution against Staphylococcus epidermidis. The class given is cell-based. Particulars: unit not given in Table 4 (Table 3, same method: μg/ml). As for the experimental part: as §1, §2, §3, §4
Data set [9] deals with MRSA 1B-387. In words: In vivo anti-bacterial activity, ICR mice inoculated I.P. with MRSA, oral treatment. Particulars: Staphylococcus aureus. As for the experimental part: For in vivo studies, groups of 5-10 female ICR mice (6-7 weeks) were inoculated intraperitonially with 3-8×10^7 CFU MRSA 1B-387 per mouse in 400 μl of 5% mucin. The test compounds at concentrations of 50 or 100 mg/kg were administered orally immediately after the bacterial inoculation and again 3 hours later. The selected dosages were administered twice daily throughout the experiment. The efficacy of the treatment was evaluated by comparison of mortality between the experimental and control groups (Table 5).

For data set [10], the system named is Candida albicans (ATCC 24433). Nature of the data set: In vitro anti-fungal activity, microdilution against Candida albicans. Format: cell-based. As to conditions: ATCC24433, C. albicans ATCC 24433, compound 25 μg/ml. As for the experimental part: A microdilution method was used to determine the anti-fungal activity of different test compounds against Candida albicans (ATCC 24433) at 25 μg/ml. RPMI-1640 broth is recommended as the medium of choice for susceptibility testing of C. albicans (NCCLS, 2002; Document M27-A2) and was used in this study. The broth was buffered to pH 7.0 and then sterilized using a 250 ml vacuum driven disposable 0.45 um filtration system.
C. albicans was sub-cultured from a −80° C. stock onto Sabouraud dextrose agar and incubated for 24-48 hrs at 37° C. The fungi inoculum was prepared by picking five colonies of ˜1 mm in diameter from 24-48 hr old cultures. The colonies were then suspended in 5 ml of sterile normal saline (8.5 g/L NaCl; 0.85% saline) diluted 1:50 and further diluted 1:20 with medium to obtain two-fold inoculum (1-5×10^3 cfu/ml). […] The microtitre plates were then sealed in plastic bags and incubated at 35° C. for 24-48 hrs in an ambient air incubator with shaking at 250 RPM.
Inhibition of visible growth of C. albicans in the microtitre plate wells was assessed by the unaided eye and confirmed by OD600 reading. […] The MIC values of compounds with significant activity are also included.

Data set [11] has as its system MRSA 1B-387. In words: In vivo anti-bacterial activity, ICR mice inoculated I.P. with MRSA, oral treatment. Particulars: Staphylococcus aureus. The source holds these as a separate data set.
The mark [12] stands for this setting: against all 8 strains of S. aureus tested except where indicated, microdilution, Ca-MHB, 35° C., 24 hr, read-out: MIC.

As to `Cc1[nH]c2ccccc2c1-c1nc(-c2ccccc2)c(-c2ccccc2)[nH]1` [Compound 2], the visual bacterial growth result in data set [1] (Conc. 3.12 μg/ml) is given as “+”; in [1] (Conc. 6.25 μg/ml), “+”; in [1] (Conc. 12.50 μg/ml), “−”; in data set [1] (Conc. 25.00 μg/ml), “−”; in data set [1] (Conc. 50.00 μg/ml), “−”; in data set [1] (Conc. 100.00 μg/ml), “−”. The “bactericidal or bacteriostatic effect at the corresponding MIC” value (shortened to “bactericidal or bacteriostatic effect”) in data set [2] was “bactericidal effect”. Further, the “Survival (%)” value with MRSA-1B387 is given as 80%. The “acute toxicity (symptoms of sickness, total weight, organ weight and appearance)” value in [3] is given as “no toxic effects”. Also, the MIC in [4] (setting [12]) was 8 to 16 µg/mL (≈ 22.9 to 45.8 µM); in data set [5] it was 16; in [6], 16; in [7], 16; in [8] it was 16.
Regarding `O=C(O)c1ccc(-c2nc(-c3ccc(Br)cc3)c(-c3ccccc3Br)[nH]2)cc1` [Compound 3], the visual bacterial growth entry in [1] (Conc. 3.12 μg/ml) is “+”; in [1] (Conc. 6.25 μg/ml), “+”; in data set [1] (Conc. 12.50 μg/ml), “+”; in data set [1] (Conc. 25.00 μg/ml), “−”; in [1] (Conc. 50.00 μg/ml) it was “−”; in data set [1] (Conc. 100.00 μg/ml), “−”. Also, in data set [2], the “bactericidal or bacteriostatic effect” value was “bacteriostatic effect”. In the data set on MRSA-1B387 (50 mg/kg), the “Survival (%)” value turned out to be 15%.
For the compound `O=C(O)c1ccc(-c2nc(-c3ccc(Br)cc3)c(-c3ccccc3Br)[nH]2)cc1` [Compound 4], the visual bacterial growth entry was “+” in [1] (Conc. 3.12 μg/ml); “+” in data set [1] (Conc. 6.25 μg/ml); “+” in data set [1] (Conc. 12.50 μg/ml); “+” in data set [1] (Conc. 25.00 μg/ml); “−” in [1] (Conc. 50.00 μg/ml); “−” in data set [1] (Conc. 100.00 μg/ml). The “bactericidal or bacteriostatic effect” value in [2] is listed as “bacteriostatic effect”. Further, in the data set on MRSA-1B387 (50 mg/kg), the “Survival (%)” value is 50%.
One may read the inhibition as the relative decrease from the control value, in per cent. For the compound `Cc1[nH]c2ccccc2c1-c1nc(-c2ccc(Br)cc2)c(-c2ccc(Br)cc2)[nH]1` [Compound 13], the figures for the MIC in [4] (setting [12]), in data set [5] and in data set [6] were 2 to 4 µg/mL (≈ 3.94 to 7.89 µM), 32 and 32, respectively. Besides, the responders at 100 mg/kg in the data set with MRSA 1B-387 [9] and with MRSA 1B-387 [9] (read-out: Survival %) was 20% throughout. The inhibition at 25 µg/mL in [10] (24 h, read-out: Inhibition (%) after 24 h) was found to be 0%; in data set [10] (48 h, read-out: Inhibition (%) after 48 h), 0%.
The melting point is the temperature of the solid-liquid transition. Compound `Cc1[nH]c2ccccc2c1-c1nc(-c2ccc(Cl)cc2)c(-c2ccc(Cl)cc2)[nH]1` [Compound 19] gave a melting point of 165 to 167 °C. Also, the MIC in data set [4] (setting [12]) was 4 µg/mL (≈ 9.56 µM). Further, the MIC in [5] worked out at 8. Also, in data set [6], the MIC is reported as 8. Further, the MIC in data set [7] came out at 8. In data set [8], this compound yielded an MIC of 4.
In turn, `Brc1ccc2[nH]cc(-c3nc(-c4ccc(-c5ccccc5)cc4)c(-c4ccc(-c5ccccc5)cc4)[nH]3)c2c1` [Compound 41] yielded a melting point of 155 to 158 °C. Further, the MIC in data set [4] (setting [12]) was greater than 128 µg/mL.
For `Brc1ccc2[nH]cc(-c3nc4c5ccccc5c5ccccc5c4[nH]3)c2c1` [Compound 45], in [4] (24 h), the MIC is 0.5 µg/mL (≈ 1.21 µM). Also, the figures for the responders at 100 mg/kg in the data set on MRSA 1B-387 [9] and in the data set with MRSA 1B-387 [9] (read-out: Survival %) were 10% and 20%, respectively. Moreover, the responders at 200 mg/kg in the data set with MRSA 1B-387 [11] and in the data set with MRSA 1B-387 [11] (read-out: Survival %) was 40% throughout.
Turning to `CN[C@H](CC(C)C)C(=O)N[C@H]1C(=O)N[C@@H](CC(N)=O)C(=O)N[C@H]2C(=O)N[C@H]3C(=O)N[C@H](C(=O)N[C@H](C(=O)O)c4cc(O)cc(O)c4-c4cc3ccc4O)[C@H](O)c3ccc(c(Cl)c3)Oc3cc2cc(c3O[C@@H]2O[C@H](CO)[C@@H](O)[C@H](O)[C@H]2O[C@H]2C[C@](C)(N)[C@H](O)[C@H](C)O2)Oc2ccc(cc2Cl)[C@H]1O` [Vancomycin, reference compound], the “Survival (%)” value in the data set on MRSA-1B387 is 100%. The MIC in data set [5] is listed as greater than 128; in [6], 32; in data set [7], 4; in data set [8], 2.
